Data set [1] addresses Sphingosine 1-phosphate receptor 1 (Homo sapiens, UniProt P21453). Kind of data set: Inhibition of S1PR1 (unknown origin) expressed in CHOK1 cells after 90 mins by beta-arresting recuitment assay. The data set is classed as functional, cell-based.
The nature of data set [2]: Drug level in human plasma treated with (5-methyl-2-oxo-1,3-dioxol-4-yl)methyl 4-((3-(2-hydroxyphenyl)-4-oxo-2-(propylimino)thiazolidin-5-ylidene)methyl)benzoate at 37 degC. The data set is classed as ADME, cell-free.
Data set [3] can be described thus: Drug metabolism in human plasma assessed as formation of 4-((3(2-hydroxyphenyl)-4-oxo-2-(propylimino)thiazolidin-5-ylidene)methyl)benzoic acid at 37 degC. The data set is classed as ADME, cell-free.
The subject of the next data set is Homo sapiens. Kind of data set: Antiinflammatory activity in psoriasis patient assessed as incident of 75% reduction in psoriasis area and severity index score at 40 mg, po dosed daily during phase 2 study for 28 weeks. Also on record: scale not given: the % may be the effect or the level left. The data set is classed as functional.

Some results are limits rather than exact numbers.

Chain of Sphingosine 1-phosphate receptor 1 (P21453 whole entry): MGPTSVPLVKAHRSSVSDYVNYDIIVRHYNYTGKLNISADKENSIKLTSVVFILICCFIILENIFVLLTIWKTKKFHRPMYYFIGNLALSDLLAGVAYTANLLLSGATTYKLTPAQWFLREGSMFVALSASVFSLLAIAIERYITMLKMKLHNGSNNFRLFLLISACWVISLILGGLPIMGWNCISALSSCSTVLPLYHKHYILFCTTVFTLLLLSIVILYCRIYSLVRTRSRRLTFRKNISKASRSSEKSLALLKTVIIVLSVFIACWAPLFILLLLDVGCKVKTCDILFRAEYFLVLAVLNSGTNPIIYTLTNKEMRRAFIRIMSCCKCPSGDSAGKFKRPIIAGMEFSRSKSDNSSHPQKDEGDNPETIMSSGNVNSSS

Broadly, the IC50 is the midpoint of a concentration-inhibition curve. Turning to `CCC/N=C1\S/C(=C\c2ccc(C(=O)O)cc2)C(=O)N1c1ccccc1O`, the IC50 in data set [1] is greater than 1000 nM. Moreover, the Drug metabolism entry in data set [2] is “Metabolite_Notdetected”.

`CCC/N=C1\S/C(=C\c2ccc(C(=O)OCc3oc(=O)oc3C)cc2)C(=O)N1c1ccccc1O` gave an IC50 in data set [1] greater than 1000 nM. Moreover, the Drug metabolism result in data set [3] is reported as “Metabolite_Detected”. Regarding `CCC/N=C1\S/C(=C\c2ccc(OC[C@H](O)CO)c(Cl)c2)C(=O)N1c1ccccc1C` [PONESIMOD], the Activity in the data set on Homo sapiens was found to be 77%.

Source of the values: ChEMBL document CHEMBL4265888, “Discovery of super soft-drug modulators of sphingosine-1-phosphate receptor 1” (Bioorg Med Chem Lett, 2018).
